Measured values: patent publication US10076519B2 (CYTOKINETICS, INC., priority 2010, dated 2018)

system: rabbit skeletal myofibrils (fast skeletal myofibrils); assay: Activation of fast skeletal myofibrils (PUMA assay, PK/LDH-coupled ATPase at pCa25); type: biochemical; conditions: AC1.4 determined according to the procedure of Example 39; reported as class symbols
Procedure, shortened: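 Detergent-washed rabbit psoas myofibrils (~90% fast fibres, calcium-regulated) assayed at calcium giving 25% of maximal ATPase rate (pCa25). ADP turnover coupled via pyruvate kinase/lactate dehydrogenase to NADH oxidation, read at 340 nm. Buffer 12 mM PIPES, 2 mM MgCl2, 1 mM DTT, pH 6.8; AC1.4 values derived.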

Row | Structure (SMILES) | Mean AC1.4
1 | CC(C)(CNc1ccc(-c2nnn[nH]2)nn1)c1ccc(F)cc1 [(6-(1H-1,2,3,4-tetraazol-5-yl)pyridazin-3-yl)[2-(4-fluorophenyl)-2-methylpropyl]amine] | D (D=>20 uM)
2 | CC(C)(CNc1ccc(-c2cccc3[nH]ncc23)nn1)c1ccc(F)cc1 [(6-(1H-indazol-4-yl)pyridazin-3-yl)[2-(4-fluorophenyl)-2-methylpropyl]amine] | A (A=<1 uM)
3 | CC(C)(CNc1ccc(-c2ccc3[nH]ncc3c2)nn1)c1ccc(F)cc1 [(6-(1H-indazol-5-yl)pyridazin-3-yl)[2-(4-fluorophenyl)-2-methylpropyl]amine] | A (A=<1 uM)
4 | COc1ccc(C2(CNc3ccc(-c4ccc5[nH]ncc5c4)nn3)CCC2)nc1 [(6-(1H-indazol-5-yl)pyridazin-3-yl){[(5-methoxy(2-pyridyl))cyclobutyl]methyl}amine] | B (B=1-10 uM)
5 | COc1cccc(C2(CNc3ccc(-c4ccc5[nH]ncc5c4)nn3)CCC2)n1 [(6-(1H-indazol-5-yl)pyridazin-3-yl){[(6-methoxy(2-pyridyl))cyclobutyl]methyl}amine] | A (A=<1 uM)
6 | CC(C)(CNc1ccc(-c2ccc3cn[nH]c3c2)nn1)c1ccc(F)cc1 [(6-(1H-indazol-6-yl)pyridazin-3-yl)[2-(4-fluorophenyl)-2-methylpropyl]amine] | A (A=<1 uM)
7 | c1ccc(C2(CNc3ccc(-c4ccc5cn[nH]c5c4)nn3)CCC2)nc1 [(6-(1H-indazol-6-yl)pyridazin-3-yl)[(2-pyridylcyclobutyl)methyl]amine] | A (A=<1 uM)
8 | c1cnc(C2(CNc3ccc(-c4ccc5cn[nH]c5c4)nn3)CCC2)cn1 [(6-(1H-indazol-6-yl)pyridazin-3-yl)[(pyrazin-2-ylcyclobutyl)methyl]amine] | C (C=10-20 uM)
9 | Fc1ccc(C2(CNc3ccc(-c4ccc5cn[nH]c5c4)nn3)CCC2)cc1 [(6-(1H-indazol-6-yl)pyridazin-3-yl){[(4-fluorophenyl)cyclo-butyl]methyl}amine] | A (A=<1 uM)
10 | COc1ccnc(C2(CNc3ccc(-c4ccc5cn[nH]c5c4)nn3)CCC2)c1 [(6-(1H-indazol-6-yl)pyridazin-3-yl){[(4-methoxy(2-pyridyl))cyclobutyl]methyl}amine] | A (A=<1 uM)
11 | COc1ccc(C2(CNc3ccc(-c4ccc5cn[nH]c5c4)nn3)CCC2)nc1 [(6-(1H-indazol-6-yl)pyridazin-3-yl){[(5-methoxy(2-pyridyl))cyclobutyl]methyl}amine] | B (B=1-10 uM)
12 | COc1cccc(C2(CNc3ccc(-c4ccc5cn[nH]c5c4)nn3)CCC2)n1 [(6-(1H-indazol-6-yl)pyridazin-3-yl){[(6-methoxy(2-pyridyl))cyclobutyl]methyl}amine] | A (A=<1 uM)
13 | CC(C)(CNc1ccc(-c2ccc3[nH]cnc3c2)nn1)c1ccc(F)cc1 [(6-benzimidazol-5-ylpyridazin-3-yl)[2-(4-fluorophenyl)-2-methylpropyl]amine] | A (A=<1 uM)
14 | Fc1cccnc1C1(CNc2ccc(-c3ccc4n[nH]nc4c3)nn2)CCC1 [(6-benzotriazol-6-ylpyridazin-3-yl){[(3-fluoro(2-pyridyl))cyclobutyl]methyl}amine] | A (A=<1 uM)

Second part, the compound after the results:

Row | Mean AC1.4 | Structure (SMILES)
15 | B (B=1-10 uM) | CC(C)(CNc1ccc(-c2ccc3[nH]ncc3c2)nn1)c1ncccc1F [(6-(1H-indazol-5-yl)pyridazin-3-yl)[2-(3-fluoro(2-pyridyl))-2-methylpropyl]amine]
16 | A (A=<1 uM) | c1ccc(C2(CNc3ccc(-c4ccc5[nH]ncc5c4)nn3)CCC2)nc1 [(6-(1H-indazol-5-yl)pyridazin-3-yl)[(2-pyridylcyclobutyl)methyl]amine]
17 | C (C=10-20 uM) | c1cnc(C2(CNc3ccc(-c4ccc5[nH]ncc5c4)nn3)CCC2)cn1 [(6-(1H-indazol-5-yl)pyridazin-3-yl)[(pyrazin-2-ylcyclobutyl)methyl]amine]
18 | D (D=>20 uM) | CS(=O)(=O)N(CC1(c2ncccc2F)CNC1)c1ccc(-c2ccc3[nH]ncc3c2)nn1 [(6-(1H-indazol-5-yl)pyridazin-3-yl){[3-(3-fluoro(2-pyridyl))azetidin-3-yl]methyl}(methylsulfonyl)amine]
19 | D (D=>20 uM) | Fc1cccnc1C1(CNc2ccc(-c3ccc4[nH]ncc4c3)nn2)CNC1 [(6-(1H-indazol-5-yl)pyridazin-3-yl){[3-(3-fluoro(2-pyridyl))azetidin-3-yl]methyl}amine]
20 | A (A=<1 uM) | Fc1cccnc1C1(CNc2ccc(-c3ccc4[nH]ncc4c3)nn2)CCC1 [(6-(1H-indazol-5-yl)pyridazin-3-yl){[(3-fluoro(2-pyridyl))cyclobutyl]methyl}amine]
21 | B (B=1-10 uM) | COc1cccnc1C1(CNc2ccc(-c3ccc4[nH]ncc4c3)nn2)CCC1 [(6-(1H-indazol-5-yl)pyridazin-3-yl){[(3-methoxy(2-pyridyl))cyclobutyl]methyl}amine]
22 | A (A=<1 uM) | Fc1ccc(C2(CNc3ccc(-c4ccc5[nH]ncc5c4)nn3)CCC2)cc1 [(6-(1H-indazol-5-yl)pyridazin-3-yl){[(4-fluorophenyl)cyclo-butyl]methyl}amine]
23 | A (A=<1 uM) | COc1ccnc(C2(CNc3ccc(-c4ccc5[nH]ncc5c4)nn3)CCC2)c1 [(6-(1H-indazol-5-yl)pyridazin-3-yl){[(4-methoxy(2-pyridyl))cyclobutyl]methyl}amine]
24 | A (A=<1 uM) | Fc1cccnc1C1(CNc2ccc(-c3ccc4cn[nH]c4c3)nn2)CCC1 [(6-(1H-indazol-6-yl)pyridazin-3-yl){[(3-fluoro(2-pyridyl))cyclobutyl]methyl}amine]
25 | B (B=1-10 uM) | COc1cccnc1C1(CNc2ccc(-c3ccc4cn[nH]c4c3)nn2)CCC1 [(6-(1H-indazol-6-yl)pyridazin-3-yl){[(3-methoxy(2-pyridyl))cyclobutyl]methyl}amine]
26 | A (A=<1 uM) | Fc1cccnc1C1(CNc2ccc(-c3ccc4[nH]cnc4c3)nn2)CCC1 [(6-benzimidazol-5-ylpyridazin-3-yl){[(3-fluoro(2-pyridyl))cyclobutyl]methyl}amine]

same assay, conditions: median AC1.4 class, procedure of Example 39

Row | Structure (SMILES) | Mean AC1.4
27 | C[C@H](N)C(=O)NCc1cnc(-c2ccc(NCC3(c4ncccc4F)CCC3)nn2)s1 [(2S)-2-amino-N-({2-[6-({[(3-fluoro(2-pyridyl))cyclobutyl]methyl}ami-no)pyridazin-3-yl](1,3-thiazol-5-yl)}methyl)propanamide] | A (A=<1 uM)
28 | CC(C)(Nc1ccc(-c2ccc3[nH]ncc3c2)nn1)c1ccccc1 [(6-(1H-indazol-5-yl)pyridazin-3-yl)(1-methyl-1-phenylethyl)amine] | B (B=1-10 uM)
29 | Fc1ccc(C2(Nc3ccc(-c4ccc5[nH]ncc5c4)nn3)CCC2)cc1 [(6-(1H-indazol-5-yl)pyridazin-3-yl)[(4-fluorophenyl)cyclobutyl]amine] | A (A=<1 uM)
30 | FC(F)(CNc1ccc(-c2ccc3cn[nH]c3c2)nn1)c1ccccn1 [(6-(1H-indazol-6-yl)pyridazin-3-yl)(2,2-difluoro-2-(2-pyridyl)ethyl)amine] | D (D=>20 uM)
31 | Fc1cccnc1C1(CNc2ccc(-c3nn[nH]n3)nn2)CCC1 [(6-(2H-1,2,3,4-tetraazol-5-yl)pyridazin-3-yl){[(3-fluoro(2-pyridyl))cyclobutyl]methyl}amine] | D (D=>20 uM)
32 | Fc1cccnc1C1(CNc2ccc(C3CNC3)nn2)CCC1 [(6-azetidin-3-ylpyridazin-3-yl){[(3-fluoro(2-pyridyl))cyclobutyl]methyl}amine] | D (D=>20 uM)
33 | Fc1ccc(C2(Nc3ccc(-c4ccc5[nH]cnc5c4)nn3)CCC2)cc1 [(6-benzimidazol-5-ylpyridazin-3-yl)[(4-fluorophenyl)cyclobutyl]amine] | A (A=<1 uM)
34 | Fc1cccnc1C1(Nc2ccc(-c3ccc4nc[nH]c4c3)nn2)CCC1 [(6-benzimidazol-6-ylpyridazin-3-yl)[(3-fluoro(2-pyridyl))cyclobutyl]amine] | B (B=1-10 uM)
35 | Fc1cccnc1C1(Nc2ccc(C3=CCCCC3)nn2)CCC1 [(6-cyclohex-1-enylpyridazin-3-yl)[(3-fluoro(2-pyridyl))cyclobutyl]amine] | C (C=10-20 uM)
36 | Fc1cccnc1C1(CNc2ccc(C3=CCCCC3)nn2)CCC1 [(6-cyclohex-1-enylpyridazin-3-yl){[(3-fluoro(2-pyridyl))cyclobutyl]methyl}amine] | A (A=<1 uM)

The remaining lines, values ahead:

Row | Mean AC1.4 | Structure (SMILES)
37 | B (B=1-10 uM) | Fc1cccnc1C1(Nc2ccc(-c3ccc4[nH]ncc4c3)nn2)CCC1 [(6-(1H-indazol-5-yl)pyridazin-3-yl)[(3-fluoro(2-pyridyl))cyclobutyl]amine]
38 | B (B=1-10 uM) | Fc1cccnc1C1(CNc2ccc(-c3ccc4[nH]ncc4c3)nn2)CC(F)(F)C1 [(6-(1H-indazol-5-yl)pyridazin-3-yl){[3,3-difluoro-1-(3-fluoro(2-pyridyl))cyclobutyl]methyl}amine]
39 | B (B=1-10 uM) | Fc1cccnc1C1(Nc2ccc(-c3ccc4cn[nH]c4c3)nn2)CCC1 [(6-(1H-indazol-6-yl)pyridazin-3-yl)[(3-fluoro(2-pyridyl))cyclobutyl]amine]
40 | B (B=1-10 uM) | Fc1cccnc1C1(CNc2ccc(-c3ccc4cn[nH]c4c3)nn2)CC(F)(F)C1 [(6-(1H-indazol-6-yl)pyridazin-3-yl){[3,3-difluoro-1-(3-fluoro(2-pyridyl))cyclobutyl]methyl}amine]

same assay, conditions: median AC1.4 reported as class; procedure of Example 39

Row | Mean AC1.4 | Structure (SMILES)
41 | A (A=<1 uM) | C[C@H](O)C(=O)NCc1cnc(-c2ccc(NCC3(c4ncccc4F)CCC3)nn2)s1 [(2S)-N-({2-[6-({[(3-fluoro(2-pyridyl))cyclobutyl]methyl}ami-no)pyridazin-3-yl](1,3-thiazol-5-yl)}methyl)-2-hydroxypropanamide]
42 | A (A=<1 uM) | NC1(C(=O)NCc2cnc(-c3ccc(NCC4(c5ncccc5F)CCC4)nn3)s2)COC1 [(3-aminooxetan-3-yl)-N-({2-[6-({[(3-fluoro(2-pyridyl))cyclobutyl]methyl}ami-no)pyridazin-3-yl](1,3-thiazol-5-yl)}methyl)carboxamide]
